The values below come from article PMC11655196, “Angiotensin-I-converting enzyme inhibitory peptides from eel (Anguilla japonica) bone collagen: preparation, identification, molecular docking, and protective function on HUVECs” (Frontiers in Nutrition, 2024).

Read-outs that look alike come from different tables or passages of the source. Ends that are not written are not given here.

The conditions of assay [1]: from conger eel (Conger myriaster); read-out: IC50 (anti-oxidative effects); cited from earlier work. From the text:
Anguilla japonica, also known as eel, is a type of aquatic food that contains high levels of protein, fat, vitamin A, vitamin E, and other nutrients ([11]). It is particularly abundant in collagen. Eel processing is mainly based on grilled eel, most of which is exported abroad. During the eel processing of eels, various by-products such as fish heads and bones are generated. These by-products are mainly used in the production of animal feed or discarded. Eel bones have approximately 13.25% of protein, 19.18% of lipid, 5.63% of ash, and 56.96% of moisture content ([12]). Some bioactive peptides ...

The subject of assay [2] is ACE. The settings on record: read-out: IC50 (blood pressure lowering peptide, ACE), cited from earlier work. The text has this: There were various peptides derived from food that are recognized for their ability to inhibit ACE activity, potentially leading to a reduction in blood pressure levels in vivo ([6]).
Assay [3] deals with T1, ACE (Oryctolagus cuniculus, UniProt P12822).
T1 construct: ACE (≥2.0 U/mg, rabbit lung) was purchased; purchased Shanghai Yuanye Biotechnology Co., Ltd. (Shanghai, China); host or cells: rabbit lung (tissue-derived)
T1 sequence (P12822 34-1310): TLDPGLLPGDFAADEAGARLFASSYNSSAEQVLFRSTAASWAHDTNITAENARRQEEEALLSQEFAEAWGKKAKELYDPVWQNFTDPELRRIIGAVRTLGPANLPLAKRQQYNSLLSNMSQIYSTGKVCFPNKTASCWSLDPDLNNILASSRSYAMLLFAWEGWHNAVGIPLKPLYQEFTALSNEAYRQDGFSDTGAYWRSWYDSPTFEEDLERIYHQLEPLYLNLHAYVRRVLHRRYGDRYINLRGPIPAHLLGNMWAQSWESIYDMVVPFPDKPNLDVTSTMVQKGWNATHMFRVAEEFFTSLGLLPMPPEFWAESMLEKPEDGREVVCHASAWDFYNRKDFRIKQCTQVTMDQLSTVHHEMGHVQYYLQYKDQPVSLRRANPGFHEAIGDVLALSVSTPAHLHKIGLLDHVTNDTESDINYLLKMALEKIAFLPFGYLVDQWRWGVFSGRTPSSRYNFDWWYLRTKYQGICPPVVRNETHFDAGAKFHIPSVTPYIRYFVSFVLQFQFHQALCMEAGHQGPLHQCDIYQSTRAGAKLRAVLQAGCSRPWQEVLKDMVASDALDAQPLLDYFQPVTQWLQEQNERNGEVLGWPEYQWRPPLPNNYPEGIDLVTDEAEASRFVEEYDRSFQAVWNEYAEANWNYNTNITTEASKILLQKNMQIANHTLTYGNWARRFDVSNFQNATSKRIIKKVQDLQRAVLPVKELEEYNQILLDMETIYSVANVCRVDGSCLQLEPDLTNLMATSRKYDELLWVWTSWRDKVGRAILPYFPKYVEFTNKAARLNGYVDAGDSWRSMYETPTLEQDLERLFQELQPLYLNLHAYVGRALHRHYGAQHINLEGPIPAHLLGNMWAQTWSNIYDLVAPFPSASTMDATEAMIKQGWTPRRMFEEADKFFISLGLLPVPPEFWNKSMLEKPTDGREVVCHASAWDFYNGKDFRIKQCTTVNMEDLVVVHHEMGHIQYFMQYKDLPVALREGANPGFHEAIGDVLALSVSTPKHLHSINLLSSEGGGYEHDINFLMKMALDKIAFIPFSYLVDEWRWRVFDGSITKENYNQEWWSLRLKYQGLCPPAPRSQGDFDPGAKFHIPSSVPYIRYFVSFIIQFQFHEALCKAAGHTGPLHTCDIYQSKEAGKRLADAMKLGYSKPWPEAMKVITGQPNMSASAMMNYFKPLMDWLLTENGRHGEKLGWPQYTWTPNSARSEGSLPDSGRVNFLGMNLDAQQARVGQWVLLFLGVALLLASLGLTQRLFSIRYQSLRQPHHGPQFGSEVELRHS
Nature of the assay: ACE inhibition kinetics (Lineweaver-Burk plots). In kind it is biochemical, rabbit. The settings on record: GPPGPPGL 0–100 μM, HHL 2 to 5 mM. On the procedure:
The ACE inhibition kinetics of the chosen peptides were determined using the method of previous research ([20]), using Lineweaver–Burk plots. The measurement of ACE activity was conducted at different concentrations of peptides, and HHL concentrations ranging from 2 to 5 mM were included. The Michaelis–Menten kinetic equation was used to compute the Michaelis–Menten constant (Km) and maximum reaction rate (Vmax) using data obtained from the Lineweaver–Burk plots.

One may read the IC50 as the concentration needed to halve the response being measured. As to “LGLNGDDVN [literature anti-oxidative peptide from conger eel (Conger myriaster)]”, the concentration for half-maximal inhibition (IC50) in assay [1] is 78.5 µM. “Trp-Pro-Met-Gly-Phe [literature peptide from Cyclina sinensis]”: in assay [2] (from Cyclina sinensis), the IC50 is 789 µM. As to GPPGPPGL [GPPGPPGL], in assay [3], the “Km with increasing peptide level” value is reported as “increase”.

With “Gln-Val-Glu-Tyr [literature peptide from Gracilariopsis lemaneiformis]”, the IC50 in assay [2] (from Gracilariopsis lemaneiformis) is 474 µM. On to “Ile-Pro-Ile-Lys [literature peptide from Euphausia superba]”, for which, in assay [2] (from Euphausia superba), the concentration for half-maximal inhibition (IC50) was 57.4 µM.
